The target in one data set is PI3Kα (Homo sapiens, UniProt P42336). Nature of the data set: Kinase experiment (ADP-Glo, luminescence), PI3Kα. To be noted: final concentration of ATP 10 μM; read-out: IC50 of compound to PI3K (nM) α. It is filed as biochemical. How it is done:
(§1) PI3Kα, PI3Kβ, PI3Kγ kinases undergo enzymatic reactions with their substrates ATP and PIP2:3PS, the amount of the product detected by ADP-Glo agent and luminescence method were used to reflect the enzymatic activities of PI3Kα, PI3Kβ, PI3Kγ (the final concentration of ATP is 10 μM). The above methods were used to test the inhibitory activity of certain compound of the present invention on PI3Kα, PI3Kβ and PI3Kγ kinase.
(§2) Agent: Basic kinase buffer (pH 7.5); PI3Kα, PI3Kβ, PI3Kγ kinase solutions; PIP2:3PS and ATP solutions; ADP-Glo kit (containing 10 mM MgCl2).
(§3) Wherein, the buffer composition: 50 mM Hepes (pH 7.2-7.5), 3 mM MgCl2, 1 mM EGTA, 0.03% CHAPS, 100 mM NaCl, 2 mM DTT; • Compound preparation: The tested compound was diluted to a specific concentration with 100% DMSO. • Process: 1) PI3Kα, PI3Kβ, or PI3Kγ protein solution were dispensed to a 384-well assay plate (6008280, PerkinElmer), and centrifuged at 1000 rpm for 1 minute. • 2) Tested compound, negative control DMSO or positive control BYL719 was dispensed to the above-mentioned 384-well assay plate with the kinase, centrifuged at 1000 rpm for 1 min, and incubated at 25° C. for 15 mins. • 3) PIP2:3PS&ATP solution was added to the above-mentioned 384-well assay plate, centrifuged at 1000 rpm for 1 min, incubated at 25° C. for 60 mins. • 4) 5 μL of ADP-Glo agent (10 mM MgCl2 contained) was transferred to the 384-well assay plate, centrifuged at 1000 rpm for 1 min, incubated at 25° C. for 40 mins. • 5) 10 μL of Detection agent was transferred to the 384-well assay plate, centrifuged at 1000 rpm for 1 min, incubated at 25° C. for 40 mins. • 6) RLU (Relative luminescence unit) value was measured by Envision multifunctional plate reader. The RLU value was used to characterize the degree of reaction between the enzyme and the substrate, and calculate the IC50 value. • 7) Data analysis:
(§4) Compound inhibition rate(% inh)=(negative control RLU-tested compound RLU)/(negative control RLU-positive control RLU)*100%
(§5) The IC50 (half inhibitory concentration) of the compound was obtained using the following nonlinear fitting formula:
(§6) Y=minimum inhibition rate+(max inhibition rate-minimum inhibition rate)/(1+10^((Log IC50−X)*slope)); wherein, X is the log value of the concentration of the tested compound, Y is the inhibition rate of tested compound(% inh).

For another data set, the target named is PI3Kβ (Homo sapiens, UniProt P42338). Briefly: Kinase experiment (ADP-Glo, luminescence), PI3Kβ. The class given is biochemical. To be noted: final concentration of ATP 10 μM; read-out: IC50 of compound to PI3K (nM) β. How it is done: as §1, §2, §3, §4, §5, §6
The target in a further data set is PI3Kγ (Homo sapiens, UniProt P48736). Nature of the data set: Kinase experiment (ADP-Glo, luminescence), PI3Kγ. As to conditions: final concentration of ATP 10 μM; read-out: IC50 of compound to PI3K (nM) γ. The class given is biochemical. How it is done:
as §1, §2, §3, §4, §5, §6
A general note: ADP-Glo first removes unused ATP, then detects ADP through luciferase.

The subject of the next data set is human tumor cells MCF-7. Nature of the data set: Cell proliferation assay (CellTiter Glo), MCF-7. The class given is cell-based. To be noted: MCF7, MCF-7 cells incubated for 120 h, read-out: IC50(μM) of compound on MCF cell. How it is done: (§7) Method: The anti-proliferative effects on human tumor cells MCF-7 and HGC27 of certain compounds of the present invention were evaluated by CellTiter Glo assay.
(§8) Detection method: MCF-7 cells were suspended in DMEM culture medium, the cell concentration of which was adjusted to 25000 cells/mL; HGC27 cells were suspended in RPMI-1640 culture medium, the cell concentration of which was adjusted to 5000 cells/mL. 100 μL of cell suspension was dispensed to a 96-well assay plate and placed in a CO2 incubator overnight. The tested compounds were dissolved in DMSO, and 3-fold derail dilution was performed to obtain 10-point concentrations. the 10-point concentrations of the tested compounds or or negative control was transferred to the well containing 100 μL of culture medium respectively, incubated at 37° C., 5% CO2, the HGC27 cells were incubated for 96 h, MCF-7 cells were incubated for 120 h. Then 100 μL of CellTiter-Glo agent was added to the above-mentioned 96-well assay plate, incubated at room temperature for 10 minutes to allow stable luminescence signal. VICTOR™ X5 instrument was used to record RLU (relative luminescence unit), and then calculate the IC50 values were calculated.
(§9) Compound inhibition rate(% inh)=100% −(tested compound RLU-blank control RLU)/(negative control RLU-blank control RLU)*100%
(§10) Blank control: blank culture medium, with no compound or cell;
as §5
(§11) Y=minimum inhibition rate+(max inhibition rate-minimum inhibition rate)/(1+10^((Log IC50−X)*slope)); wherein, X: the log value of the concentration of the tested compound; Y: the inhibition rate of the tested compound(% inh).
For orientation: In ATP-based viability assays light output follows the ATP content of the culture.

The next data set has as its system human tumor cells HGC27. Briefly: Cell proliferation assay (CellTiter Glo), HGC27. As to conditions: HGC-27, HGC27 cells incubated for 96 h, read-out: IC50(μM) of ompound on HGC-27cell. The class given is cell-based. How it is done:
as §7, §8, §9, §10, §5, §11

Data set [1] is described as follows: Pharmacokinetic test in male SD rats. It is filed as in vivo. As to conditions: rat, plasma; for clearance: intravenous injection, 2 mg/kg; for AUC / Cmax: po, gavage, 10 mg/kg. The procedure: Method: 42 male SD rats, weight: 150-300 g. Divided into 7 groups randomly, with 6 rats in each group. Among the 6 rats in each group, three of them were administrated a single intravenous injection of […] of the example compound, the other three were given intragastric administration of […] of the example compound, blood was collected from the orbital venous plexus at designated time points, plasma was separated, and stored in a −80° C. refrigerator for later use.
The protein of the resultant plasma was precipitated by acetonitrile, the supernatant was extracted, and mixed with water at the ratio of 1:1, took 10 μL of which for LC-MS/MS detection, and calculated the average was calculated.

Where only a bound is given, the exact number is not on record here.

Chain of PI3Kγ (P48736 whole entry): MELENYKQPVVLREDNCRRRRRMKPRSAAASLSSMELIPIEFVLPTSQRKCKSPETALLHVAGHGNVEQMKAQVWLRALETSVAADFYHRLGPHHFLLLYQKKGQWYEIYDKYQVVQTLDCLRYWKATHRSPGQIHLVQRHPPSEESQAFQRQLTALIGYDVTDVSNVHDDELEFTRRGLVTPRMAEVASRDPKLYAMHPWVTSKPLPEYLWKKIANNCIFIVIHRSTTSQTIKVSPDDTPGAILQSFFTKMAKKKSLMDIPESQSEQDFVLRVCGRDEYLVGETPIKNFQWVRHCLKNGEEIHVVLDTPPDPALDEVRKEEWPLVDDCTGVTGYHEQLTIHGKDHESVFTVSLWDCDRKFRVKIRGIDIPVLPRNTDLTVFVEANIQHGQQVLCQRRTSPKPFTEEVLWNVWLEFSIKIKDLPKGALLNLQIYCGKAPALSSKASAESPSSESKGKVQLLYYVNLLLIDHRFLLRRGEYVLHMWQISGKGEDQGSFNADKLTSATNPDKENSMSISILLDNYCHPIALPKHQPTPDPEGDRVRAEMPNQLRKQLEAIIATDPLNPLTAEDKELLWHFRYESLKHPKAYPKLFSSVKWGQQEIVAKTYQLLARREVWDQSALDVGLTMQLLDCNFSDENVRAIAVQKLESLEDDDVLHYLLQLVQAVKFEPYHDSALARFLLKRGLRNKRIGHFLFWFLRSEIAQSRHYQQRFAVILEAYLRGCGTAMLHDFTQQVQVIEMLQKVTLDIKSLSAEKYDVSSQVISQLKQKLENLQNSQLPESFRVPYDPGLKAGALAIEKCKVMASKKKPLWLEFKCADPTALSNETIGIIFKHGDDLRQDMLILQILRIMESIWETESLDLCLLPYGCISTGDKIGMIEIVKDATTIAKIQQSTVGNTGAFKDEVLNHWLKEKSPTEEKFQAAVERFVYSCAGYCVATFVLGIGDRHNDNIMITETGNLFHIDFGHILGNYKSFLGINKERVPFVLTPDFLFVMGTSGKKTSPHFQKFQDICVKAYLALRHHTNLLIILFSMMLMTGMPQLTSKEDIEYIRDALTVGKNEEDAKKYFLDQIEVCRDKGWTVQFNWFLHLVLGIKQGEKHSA
Chain of PI3Kβ (P42338 whole entry): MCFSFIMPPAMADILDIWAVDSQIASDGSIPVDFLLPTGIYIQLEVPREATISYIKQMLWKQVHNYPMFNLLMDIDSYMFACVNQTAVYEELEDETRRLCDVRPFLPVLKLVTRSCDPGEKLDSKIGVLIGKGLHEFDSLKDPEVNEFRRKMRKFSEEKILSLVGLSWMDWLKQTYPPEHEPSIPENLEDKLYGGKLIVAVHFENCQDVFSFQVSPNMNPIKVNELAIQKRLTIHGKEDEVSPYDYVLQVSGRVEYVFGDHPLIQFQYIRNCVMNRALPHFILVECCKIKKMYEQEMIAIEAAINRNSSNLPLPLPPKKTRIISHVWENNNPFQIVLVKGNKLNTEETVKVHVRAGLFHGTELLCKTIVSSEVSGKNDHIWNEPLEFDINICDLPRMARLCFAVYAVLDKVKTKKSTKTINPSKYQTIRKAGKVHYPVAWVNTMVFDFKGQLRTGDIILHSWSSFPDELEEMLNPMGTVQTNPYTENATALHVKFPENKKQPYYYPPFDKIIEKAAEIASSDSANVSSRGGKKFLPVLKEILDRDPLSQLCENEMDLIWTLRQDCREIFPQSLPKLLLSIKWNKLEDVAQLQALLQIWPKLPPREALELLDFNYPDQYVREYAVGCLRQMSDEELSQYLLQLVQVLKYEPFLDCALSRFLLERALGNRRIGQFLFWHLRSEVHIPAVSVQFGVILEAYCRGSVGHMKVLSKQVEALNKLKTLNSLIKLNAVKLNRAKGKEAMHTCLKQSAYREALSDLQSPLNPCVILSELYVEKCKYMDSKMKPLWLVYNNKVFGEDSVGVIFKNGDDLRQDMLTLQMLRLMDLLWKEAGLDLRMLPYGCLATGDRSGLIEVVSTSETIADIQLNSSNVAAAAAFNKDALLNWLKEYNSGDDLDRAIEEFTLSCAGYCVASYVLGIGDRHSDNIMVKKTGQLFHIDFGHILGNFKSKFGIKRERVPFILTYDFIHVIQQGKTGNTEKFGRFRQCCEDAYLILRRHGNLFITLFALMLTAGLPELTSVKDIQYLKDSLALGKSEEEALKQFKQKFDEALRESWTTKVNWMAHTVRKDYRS
Chain of PI3Kβ (P27986 whole entry partner): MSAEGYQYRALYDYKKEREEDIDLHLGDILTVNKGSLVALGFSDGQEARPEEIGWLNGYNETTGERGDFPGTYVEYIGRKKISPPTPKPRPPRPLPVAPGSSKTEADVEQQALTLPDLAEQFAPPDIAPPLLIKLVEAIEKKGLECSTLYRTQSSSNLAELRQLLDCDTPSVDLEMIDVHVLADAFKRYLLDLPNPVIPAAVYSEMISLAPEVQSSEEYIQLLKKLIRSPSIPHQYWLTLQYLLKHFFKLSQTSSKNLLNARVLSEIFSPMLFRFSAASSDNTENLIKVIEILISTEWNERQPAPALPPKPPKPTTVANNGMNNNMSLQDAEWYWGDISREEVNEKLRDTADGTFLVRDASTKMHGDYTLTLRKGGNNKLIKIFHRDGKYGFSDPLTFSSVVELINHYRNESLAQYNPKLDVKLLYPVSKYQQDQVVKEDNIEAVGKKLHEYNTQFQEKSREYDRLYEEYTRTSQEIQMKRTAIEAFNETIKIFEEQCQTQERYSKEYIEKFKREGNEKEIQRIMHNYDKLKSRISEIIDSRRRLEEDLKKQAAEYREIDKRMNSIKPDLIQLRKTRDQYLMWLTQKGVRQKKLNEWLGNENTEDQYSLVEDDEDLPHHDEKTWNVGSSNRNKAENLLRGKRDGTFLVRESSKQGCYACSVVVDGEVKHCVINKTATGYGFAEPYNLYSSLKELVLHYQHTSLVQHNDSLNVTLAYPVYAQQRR
Chain of PI3Kα (P42336 whole entry): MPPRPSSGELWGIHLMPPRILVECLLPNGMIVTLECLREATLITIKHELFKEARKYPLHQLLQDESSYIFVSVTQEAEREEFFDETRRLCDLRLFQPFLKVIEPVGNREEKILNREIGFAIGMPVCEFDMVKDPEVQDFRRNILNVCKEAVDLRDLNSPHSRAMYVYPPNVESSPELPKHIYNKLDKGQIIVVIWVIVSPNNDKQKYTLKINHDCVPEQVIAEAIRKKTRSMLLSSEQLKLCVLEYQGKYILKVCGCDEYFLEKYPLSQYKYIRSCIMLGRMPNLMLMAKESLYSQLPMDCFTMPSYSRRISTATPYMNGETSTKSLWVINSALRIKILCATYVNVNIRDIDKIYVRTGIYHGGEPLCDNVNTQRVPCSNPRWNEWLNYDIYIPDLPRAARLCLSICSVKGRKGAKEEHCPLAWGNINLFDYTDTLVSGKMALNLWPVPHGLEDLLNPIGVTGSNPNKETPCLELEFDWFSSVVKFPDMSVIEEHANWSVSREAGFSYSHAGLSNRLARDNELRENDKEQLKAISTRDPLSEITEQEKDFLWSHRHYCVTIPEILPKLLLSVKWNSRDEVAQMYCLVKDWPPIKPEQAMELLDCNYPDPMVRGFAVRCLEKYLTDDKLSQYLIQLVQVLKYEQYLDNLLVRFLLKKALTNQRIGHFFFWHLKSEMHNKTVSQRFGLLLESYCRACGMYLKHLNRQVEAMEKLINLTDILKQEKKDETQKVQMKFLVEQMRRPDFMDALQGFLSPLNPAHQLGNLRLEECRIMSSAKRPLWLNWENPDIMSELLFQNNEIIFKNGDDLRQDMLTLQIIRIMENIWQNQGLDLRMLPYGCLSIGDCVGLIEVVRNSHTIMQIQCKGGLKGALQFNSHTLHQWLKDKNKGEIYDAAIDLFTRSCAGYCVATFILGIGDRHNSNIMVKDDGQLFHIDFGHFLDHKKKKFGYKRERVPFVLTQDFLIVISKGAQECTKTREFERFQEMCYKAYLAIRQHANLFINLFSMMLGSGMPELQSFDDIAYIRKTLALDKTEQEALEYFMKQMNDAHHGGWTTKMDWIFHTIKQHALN
Chain of PI3Kα (P27986 whole entry partner): as the sequence (P27986 whole entry partner) above

`CC(C)C1C(=O)N(C)C(=O)N1c1cn2c(n1)-c1ccc(N3CCC[C@H]3C(N)=O)cc1OCC2` (stereo partly drawn) [Example 1, (2S)-1-(2-(5-isopropyl-3-methyl-2,4-dioxoimidazolidin-1-yl)-5,6-dihydrobenzo[f]imidazo [1,2-d][1,4]oxazepin-9-yl)pyrrolidine-2-carboxamide]: the IC50 (in general, the point on the concentration scale where inhibition reaches its midpoint) is < 5 nM at PI3Kα, > 600 nM on PI3Kβ, > 600 nM at PI3Kγ and 0.176 µM in the data set on human tumor cells MCF-7.

With `CC(C)C1C(=O)N(C2CCC2)C(=O)N1c1cn2c(n1)-c1ccc(N3CCC[C@H]3C(N)=O)cc1OCC2` (stereo partly drawn) [Example 6, (2S)-1-(2-(3-cyclobutyl-5-isopropyl-2,4-dioxoimidazolidin-1-yl)-5,6-dihydrobenzo[f]imidazo [1,2-d] [1,4]oxazepin-9-yl)pyrrolidine-2-carboxamide], on PI3Kα, the IC50 was 5 to 20 nM.

On to `CC(C)[C@H]1C(=O)N(C2CC2)C(=O)N1c1cn2c(n1)-c1ccc(N3CCC[C@H]3C(N)=O)cc1OCC2` [Example 33, (2S)-1-(2-((5S)-3-cyclopropyl-5-isopropyl-2,4-dioxoimidazolidin-1-yl)-5,6-dihydrobenzo[f]imidazo[1,2-d] [1,4]oxazepin-9-yl)pyrrolidine-2-carboxamide], for which the IC50 at PI3Kα was < 5 nM; at PI3Kβ, > 600 nM; on PI3Kγ it was > 600 nM; with human tumor cells MCF-7, 0.047 µM; in the data set on human tumor cells HGC27, 0.267 µM. Further, the clearance (as a rule, the rate of elimination divided by the concentration) in data set [1] stood at 11.1 mL/min/kg. Moreover, the AUC – broadly, the area under the concentration-time curve, a measure of exposure – in data set [1] came out at 19800 ng·h/mL. The Cmax (in general, the maximum level reached in the sampled fluid or tissue) in data set [1] was determined as 1600 ng/mL.

For `CC(C)C1C(=O)N(CC(F)(F)F)C(=O)N1c1cn2c(n1)-c1ccc(N3CCC[C@H]3C(N)=O)cc1OCC2` (stereo partly drawn) [Example 3, (2S)-1-(2-(5-isopropyl-2,4-dioxo-3-(2,2,2-trifluoroethyl)imidazolidine-1-yl)-5,6-dihydrobenzo[f]imdazo[1,2-d] [1,4]oxazepin-9-yl)pyrrolidine-2-carboxamide], the IC50 at PI3Kα was < 5 nM.

`CC(C)C1C(=O)N(C(C)C)C(=O)N1c1cn2c(n1)-c1ccc(N3CCC[C@H]3C(N)=O)cc1OCC2` (stereo partly drawn) [Example 23, (2S)-1-(2-(3,5-diisopropyl-2,4-dioxoimidazolidin-1-yl)-5,6-dihydrobenzo[f]imidazo[1,2-d] [1,4]oxazepin-9-yl)pyrrolidine-2-carboxamide]: the IC50 at PI3Kα is < 5 nM. Moreover, the IC50 with human tumor cells MCF-7 was 0.074 µM. For the same compound, in data set [1], the clearance was determined as 8.76 mL/min/kg, the AUC is 18600 ng·h/mL and the Cmax turned out to be 1830 ng/mL.

Consider `NC(=O)[C@@H]1CCCN1c1ccc2c(c1)OCCn1cc(N3C(=O)CC[C@@H]3CO)nc1-2` [Control compound 2, (2S)-1-(2-((2R)-2-(hydroxymethyl)-5-oxopyrrolidine-1-yl)-5,6-dihydrobenzo[f]imidazo[1,2-d][1,4]oxazepin-9-yl)pyrrolidine-2-carboxamide, reference compound], for which, in the data set with human tumor cells MCF-7, the IC50 worked out at 0.549 µM.

In the case of `CN1C(=O)C(C2CC2)N(c2cn3c(n2)-c2ccc(N4CCC[C@H]4C(N)=O)cc2OCC3)C1=O` (stereo partly drawn) [Example 5, (2S)-1-(2-(5-cyclopropyl-3-methyl-2,4-dioxoimidazolidin-1-yl)-5,6-dihydrobenzo[f]imidazo [1,2-d] [1,4]oxazepin-9-yl) pyrrolidine-2-carboxamide], the IC50 at PI3Kα is 5 to 20 nM; with human tumor cells MCF-7 it was 0.373 µM; with human tumor cells HGC27 it was 4.07 µM.

In the case of `C[C@@H]1COC(=O)N1c1cn2c(n1)-c1ccc(N3CCC[C@H]3C(N)=O)cc1OCC2` [Control compound 1, (2S)-1-(2-((4R)-4-methyl-2-oxooxazolidin-3-yl)-5,6-dihydrobenzo[f]imidazo[1,2-d] [1,4]oxazepin-9-yl)pyrrolidine-2-carboxamide, reference compound], the IC50 with human tumor cells MCF-7 is 0.444 µM. Moreover, in the data set on human tumor cells HGC27, the IC50 was determined as 1.58 µM. Also, in data set [1], the clearance is 16.6 mL/min/kg, the AUC was 7880 ng·h/mL and the Cmax worked out at 1960 ng/mL.

On to `CC(C)C1C(=O)N(c2ccc(F)cc2)C(=O)N1c1cn2c(n1)-c1ccc(N3CCC[C@H]3C(N)=O)cc1OCC2` (stereo partly drawn) [Example 4, (2S)-1-(2-(3-(4-fluorophenyl)-5-isopropyl-2,4-dioxoimidazolidin-1-yl)-5,6-dihydrobenzo[f]imidazo [1,2-d][1,4]oxazepin-9-yl)pyrrolidine-2-carboxamide], for which the IC50 on PI3Kα fell in the range of 5 to 20 nM. Besides, the IC50 on PI3Kβ is > 600 nM. On PI3Kγ, the half-inhibitory concentration (IC50) was > 600 nM. Also, in data set [1], the clearance was 4.75 mL/min/kg, the AUC stood at 29100 ng·h/mL and the Cmax came to 2690 ng/mL.

Take `CC(C)C1C(=O)N(c2ccccc2)C(=O)N1c1cn2c(n1)-c1ccc(N3CCC[C@H]3C(N)=O)cc1OCC2` (stereo partly drawn) [Example 9, (2S)-1-(2-(5-isopropyl-2,4-dioxo-3-phenylimidazolidine-1-yl)-5,6-dihydrobenzo[f]imidazo[1,2-d] [1,4]oxazepin-9-yl)pyrrolidine-2-carboxamide]: the IC50 on PI3Kα was 5 to 20 nM; in the data set on human tumor cells MCF-7 it was 0.142 µM.

For the compound `CCN1C(=O)C(C(C)C)N(c2cn3c(n2)-c2ccc(N4CCC[C@H]4C(N)=O)cc2OCC3)C1=O` (stereo partly drawn) [Example 7, (2S)-1-(2-(3-ethyl-5-isopropyl-2,4-dioxoimidazolidin-1-yl)-5,6-dihydrobenzo[f]imidazo [1,2-d] [1,4]oxazepin-9-yl) pyrrolidine-2-carboxamide], the IC50 at PI3Kα fell in the range of 5 to 20 nM.

Turning to `CN1C(=O)CN(c2cn3c(n2)-c2ccc(N4CCC[C@H]4C(N)=O)cc2OCC3)C1=O` [Example 28, (2S)-1-(2-(3-methyl-2,4-dioxoimidazolidin-1-yl)-5,6-dihydrobenzo[f]imidazo[1,2-d] [1,4]oxazepin-9-yl)pyrrolidine-2-carboxamide], the IC50 in the data set with human tumor cells MCF-7 amounted to 0.468 µM; with human tumor cells HGC27, 3.92 µM.

As to `CC(C)(c1cc(-c2cn3c(n2)-c2ccc(N4CCC[C@H]4C(N)=O)cc2OCC3)ccn1)C(F)(F)F` [Control compound 3, (2S)-1-(2-(2-(1,1,1-trifluoro-2-methylpropan-2-yl)pyridn-4-yl)-5,6-dihydrobenzo[f]imidazo[1,2-d][1,4]oxazepin-9-yl)pyrrolidine-2-carboxamide, reference compound], the IC50 in the data set with human tumor cells MCF-7 came to 0.519 µM; with human tumor cells HGC27, 2.07 µM.

These data come from patent US20230053342A1, “IMIDAZOLIDINONE COMPOUND, PREPARATION METHOD THEREFOR AND USE THEREOF” (BETTA PHARMACEUTICALS CO., LTD, priority 2019, published 2023).
